From patent US11051515B2, “3-acyl-benzamides and their use as herbicides” (Bayer Aktiengesellschaft, priority 2017, dated 2021)

What was measured:
POLCO [1] = test: Post-emergence action against POLCO; assay type: in vivo, Polygonum convolvulus; conditions: post-emergence, dosage 80 g/ha
Procedure: (§1) Seeds of monocotyledonous and dicotyledonous weed and crop plants are laid out in sandy loam soil in wood-fiber pots, covered with soil and cultivated in a greenhouse under good growth conditions. 2 to 3 weeks after sowing, the test plants are treated at the one-leaf stage. The compounds of the invention, formulated in the form of wettable powders (WP) or as emulsion concentrates (EC), are then sprayed onto the green parts of the plants in the form of an aqueous suspension or emulsion at a water application rate equating to […], with addition of 0.2% wetting agent. After the test plants have been left to stand in the greenhouse under optimal growth conditions for about 3 weeks, the action of the preparations is assessed visually in comparison to untreated controls (herbicidal action in percent (%): 100% activity=the plants have died, 0% activity=like control plants). […] At the same time, inventive compounds leave Gramineae crops such as barley, wheat, rye, millet/Sorghum, corn or rice virtually undamaged when applied post-emergence, even at high active ingredient dosages. In addition, some substances are also harmless to dicotyledonous crops such as soya, cotton, oilseed rape, sugar beet or potatoes. Some of the compounds according to the invention have high selectivity and are therefore suitable for controlling unwanted vegetation in agricultural crops by the post-emergence method. The data of Tables B18 to B34 below illustrate, in an exemplary manner, the […] herbicidal action of the compounds according to the invention, the herbicidal activity being stated in percent.

ECHCG [2] = test: Post-emergence action against ECHCG; assay type: in vivo, Echinochloa crus-galli; conditions: post-emergence, dosage 80 g/ha, visual assessment about 3 weeks after treatment vs untreated controls
Procedure, shortened: (§2)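 Post-emergence foliar spray on greenhouse plants at the one-leaf stage, using wettable-powder or emulsion-concentrate formulations in water (600 to […], plus 0.2% wetting agent). Damage scored by eye roughly 3 weeks later against untreated plants: 0% = like control, 100% = dead.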

VIOTR [3] = test: Post-emergence action against VIOTR; assay type: in vivo, Viola tricolor; conditions: post-emergence, dosage 80 g/ha
Procedure, shortened: as §2

AMARE [4] = test: Post-emergence action against AMARE; assay type: in vivo, Amaranthus retroflexus; conditions: post-emergence, dosage 80 g/ha, visual assessment about 3 weeks after treatment vs untreated controls
Procedure, shortened: as §2

STEME [5] = test: Post-emergence action against STEME; assay type: in vivo, Stellaria media; conditions: post-emergence, dosage 80 g/ha
Procedure, shortened: as §2

PHBPU [6] = test: Post-emergence action against PHBPU; assay type: in vivo, Pharbitis purpurea; conditions: post-emergence, dosage 80 g/ha
Procedure, shortened: as §2

STEME [7] = test: Pre-emergence action against STEME; assay type: in vivo, Stellaria media; conditions: Dosage 320 g/ha, pre-emergence
Procedure, shortened: (§3)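 Seeds sown in sandy loam in wood-fiber pots and covered with soil. Greenhouse growth; visual damage scored after 3 weeks versus untreated controls (100% = dead, 0% = like control).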

VERPE [8] = test: Post-emergence action against VERPE; assay type: in vivo, Veronica persica; conditions: dosage 80 g/ha
Procedure, shortened: as §2

AMARE [9] = test: Pre-emergence action against AMARE; assay type: in vivo, Amaranthus retroflexus; conditions: pre-emergence, dosage 320 g/ha, scored visually after 3 weeks vs untreated controls
Procedure, shortened: as §3

MATIN [10] = test: Pre-emergence action against MATIN; assay type: in vivo, Matricaria inodora; conditions: Dosage 320 g/ha, pre-emergence
Procedure, shortened: as §3

MATIN [11] = test: Post-emergence action against MATIN; assay type: in vivo, Matricaria inodora; conditions: post-emergence, dosage 80 g/ha, visual assessment about 3 weeks after treatment vs untreated controls
Procedure, shortened: as §2

ECHCG [12] = test: Pre-emergence action against ECHCG; assay type: in vivo, Echinochloa crus-galli; conditions: pre-emergence, dosage 320 g/ha, scored visually after 3 weeks vs untreated controls
Procedure, shortened: as §3

VERPE [13] = test: Pre-emergence action against VERPE; assay type: in vivo, Veronica persica; conditions: Dosage 320 g/ha, pre-emergence
Procedure, shortened: as §3

SETVI [14] = test: Post-emergence action against SETVI; assay type: in vivo, Setaria viridis; conditions: post-emergence, dosage 80 g/ha, visual assessment about 3 weeks after treatment vs untreated controls
Procedure: as §1

AVEFA = test: Pre-emergence action against AVEFA; assay type: in vivo, Avena fatua; conditions: dosage 320 g/ha, scored visually after 3 weeks vs untreated controls
Excerpt: (§4) Seeds of monocotyledonous and dicotyledonous weed plants and crop plants are laid out in sandy loam soil in wood-fiber pots and covered with soil. The compounds of the invention, formulated in the form of wettable powders (WP) or as emulsion concentrates (EC), are then applied to the surface of the covering soil in the form of an aqueous suspension or emulsion at a water application rate equating to […], with addition of 0.2% wetting agent. After the treatment, the pots are placed in a greenhouse and kept under good growth conditions for the trial plants. The damage to the test plants is scored visually after a test period of 3 weeks by comparison with untreated controls (herbicidal activity in percent (%): 100% activity=the plants have died, 0% activity=like control plants).

ALOMY = test: Pre-emergence action against ALOMY; assay type: in vivo, Alopecurus myosuroides; conditions: dosage 320 g/ha; pre-emergence; scored visually after 3 weeks vs untreated controls; 100% = plants have died, 0% = like control plants
Procedure, shortened: as §3

CYPES [15] = test: Pre-emergence action against CYPES; assay type: in vivo, Cyperus esculentus; conditions: pre-emergence, dosage 320 g/ha, scored visually after 3 weeks vs untreated controls
Excerpt: as §4

ABUTH [16] = test: Pre-emergence action against ABUTH; assay type: in vivo, Abutilon theophrasti; conditions: pre-emergence, dosage 320 g/ha, scored visually after 3 weeks vs untreated controls
Procedure, shortened: as §3

PHBPU [17] = test: Pre-emergence action against PHBPU; assay type: in vivo, Pharbitis purpurea; conditions: Dosage 320 g/ha, pre-emergence
Excerpt: as §4

ABUTH [18] = test: Post-emergence action against ABUTH; assay type: in vivo, Abutilon theophrasti; conditions: post-emergence, dosage 80 g/ha, visual assessment about 3 weeks after treatment vs untreated controls
Procedure, shortened: as §2

CYPES [19] = test: Post-emergence action against CYPES; assay type: in vivo, Cyperus esculentus; conditions: post-emergence, dosage 80 g/ha, visual assessment about 3 weeks after treatment vs untreated controls
Procedure: as §1

VIOTR [20] = test: Pre-emergence action against VIOTR; assay type: in vivo, Viola tricolor; conditions: Dosage 320 g/ha, pre-emergence
Procedure, shortened: as §3

SETVI [21] = test: Pre-emergence action against SETVI; assay type: in vivo, Setaria viridis; conditions: pre-emergence, dosage 320 g/ha, scored visually after 3 weeks vs untreated controls
Procedure, shortened: as §3

POLCO [22] = test: Pre-emergence action against POLCO; assay type: in vivo, Polygonum convolvulus; conditions: Dosage 320 g/ha, pre-emergence
Excerpt: as §4

| SMILES | Post-emergence action against ECHCG (herbicidal action in percent) (ECHCG [2]) | Post-emergence action against VIOTR (VIOTR [3]) | Post-emergence action against AMARE (herbicidal action in percent) (AMARE [4]) | Post-emergence action against STEME (STEME [5]) | Post-emergence action against PHBPU (PHBPU [6]) | Pre-emergence action against STEME (STEME [7]) | Post-emergence action against VERPE (VERPE [8]) | Pre-emergence action against AMARE (herbicidal activity) (AMARE [9]) | Pre-emergence action against MATIN (MATIN [10]) | Post-emergence action against MATIN (herbicidal action in percent) (MATIN [11]) | Pre-emergence action against ECHCG (herbicidal activity) (ECHCG [12]) | Pre-emergence action against VERPE (VERPE [13]) | Post-emergence action against SETVI (herbicidal action in percent) (SETVI [14]) | Pre-emergence action against AVEFA (herbicidal activity) (AVEFA) | Pre-emergence action against ALOMY (herbicidal activity in percent) (ALOMY) | Pre-emergence action against CYPES (herbicidal activity) (CYPES [15]) | Pre-emergence action against ABUTH (herbicidal activity) (ABUTH [16]) | Pre-emergence action against PHBPU (PHBPU [17]) | Post-emergence action against ABUTH (herbicidal action in percent) (ABUTH [18]) | Pre-emergence action against VIOTR (VIOTR [20]) | further results |
| --- | --- | --- | --- | --- | --- | --- | --- | --- | --- | --- | --- | --- | --- | --- | --- | --- | --- | --- | --- | --- | --- |
| CCn1nnnc1NC(=O)c1ccc(C)c(C(C)=O)c1Cl [2-134] | 90% | 100 | 90% | 100 | 80 | 90% | 90 | 100% | 90% | 90% | 80% | 100% | 80% |  |  |  |  |  |  |  | Post-emergence action against POLCO (POLCO [1]): 80 |
| CCCn1nnnc1NC(=O)c1ccc(C(F)(F)F)c(C(=O)C2CC2)c1OC [3-50] | 100% | 100 | 100% | 100 | 100 | 100% | 100 | 100% | 100% | 100% |  | 100% | 100% | 100% | 100% | 90% | 100% | 80% | 100% | 100% | Post-emergence action against CYPES (herbicidal action in percent) (CYPES [19]): 80%; SETVI (Table B8, pre-emergence herbicidal activity) (SETVI [21]): 100% |
| CCCn1nnnc1NC(=O)c1ccc(C(F)(F)F)c(C(C)=O)c1SC [3-58] | 100% | 100 | 100% | 100 | 90 | 90% | 80 | 100% | 100% | 100% | 100% | 90% | 80% | 80% | 90% | 90% | 100% |  | 100% | 100% | Post-emergence action against CYPES (herbicidal action in percent) (CYPES [19]): 100%; Pre-emergence action against POLCO (POLCO [22]): 80% |
| CCCn1nnnc1NC(=O)c1ccc(C(F)(F)F)c(C(C)=O)c1Cl [3-137] | 90% | 100 | 100% | 100 | 100 | 100% | 90 | 100% | 100% | 100% | 100% | 90% | 100% | 80% | 90% | 90% | 100% | 100% | 90% | 100% | Post-emergence action against POLCO (POLCO [1]): 90; SETVI (Table B8, pre-emergence herbicidal activity) (SETVI [21]): 90% |
| CCCn1nnnc1NC(=O)c1ccc(I)c(C(C)=O)c1Cl [3-192] | 100% | 100 | 80% | 100 | 80 | 100% |  | 100% | 100% | 100% | 100% |  | 100% | 90% | 90% | 100% | 100% | 100% | 100% | 100% | Post-emergence action against CYPES (herbicidal action in percent) (CYPES [19]): 80%; SETVI (Table B8, pre-emergence herbicidal activity) (SETVI [21]): 100% |
| CCCn1nnnc1NC(=O)c1ccc(C(F)(F)F)c(C(=O)C2CC2)c1Br [3-197] | 90% | 100 | 100% | 100 | 100 | 100% | 80 | 100% | 100% | 90% | 100% | 100% | 90% | 90% | 90% | 80% | 100% | 90% | 90% | 100% | Post-emergence action against CYPES (herbicidal action in percent) (CYPES [19]): 90%; SETVI (Table B8, pre-emergence herbicidal activity) (SETVI [21]): 100% |
